Read-outs that look alike come from different tables or passages of the source.
Legend:
[1] = system: SKOV3 ovarian cancer cells; test: Phototoxicity in SKOV3 cells after 660 nm light activation (AlamarBlue viability); format: cell-based, Human; conditions: 24 h uptake, 660 nm laser or LED 50 mW/cm^2 for 5 mins (15 J/cm^2), viability 24 h after activation
Protocol: Samples were stored at 4° C. protected from light.
All data are shown as mean±SD (where appropriate).
To test for phototoxicity, cells incubated with pyropheophorbide a analogues (0-20 μM in DMSO) had culture media replaced after 24 hours (as above) and were then exposed to a 660 nm laser (Invion) or light-emitting diode (LED) panel (Invion) with optical power density at 50 mW/cm^2 for 5 mins (total 15 J/cm^2). Laser and LED exposure induce an equivalent response in relation to phototoxicity. Following activation, cells were cultured for a further 24 hours. Media was then replaced with fresh media containing AlamarBlue, and % viable cells remaining assessed as above. Controls included cells treated with pyropheophorbide a analogues but not activated by laser light; cells without pyropheophorbide a analogue treatment but with laser light; and untreated controls. All measurements were made in quadruplicate.
To evaluate the therapeutic potential of pyropheophorbide a analogues, the therapeutic index (TI) was calculated. TI provides a quantitative measurement to describe relative drug safety, by comparing the drug concentration required for desirable effects versus the concentration resulting in undesirable off-target toxicity. TI was calculated using phototoxicity IC90 vs dark toxicity IC10.

[2] = system: SKOV3 ovarian cancer cells
Protocol: (§1) Photosensitizers (e.g. pyropheophorbide a analogue, chlorin e4 disodium (provided by Advanced Molecular Technologies, Scoresby) or Talaporfin sodium (purchased from Focus Bioscience cat #HY-16477-5MG)) were resuspended in 100% dimethylsulfoxide (DMSO) at a concentration of 5.5 mM. Samples were stored at 4° C. protected from light.
(§2) For in vitro experiments, photosensitizers (stock solution 5.5 mM in 100% DMSO) were diluted 1:100 in concentrated excipient solution (final 55 M photosensitizer in 10% w/v Kollidon-12, 42.4% w/v polysorbate 80, 0.6% w/v citric acid anhydrous, 40% w/v ethanol, 1.0% DMSO). Serial dilutions were prepared in cell culture media (Dulbecco's Modified Eagle Medium/Nutrient Mixture F-12 (DMEM/F-12)) supplemented with 10% v/v Fetal Bovine Serum, 100 U/mL penicillin, 100 μg/mL streptomycin and the same excipient solution at a constant 1:55 dilution.
(§3) Human ovarian cancer cell line SKOV3 (ATCC #HTB-77) was maintained in Dulbecco's Modified Eagle Medium/Nutrient Mixture F-12 (DMEM/F-12), supplemented with 10% v/v Fetal Bovine Serum, 100 U/mL penicillin and 100 μg/mL streptomycin. Monolayer cultures were grown in a humidified incubator at 37° C. with 5% CO2. Once cells had reached ~80% confluence, spent media was replaced with media containing photosensitizer at the required concentration and cells were incubated for the desired period of time to allow photosensitizer uptake.
(§4) Spectral absorbance and viability measurements were normalized in the range 0-100%, with a minimum of 0 and a maximum value determined from the dataset. Dose response was determined using a sigmoidal four-point non-linear regression with variable slope, and IC10 or IC90 calculated for each compound.
(§5) SKOV3 cells were seeded in 96-well black wall plates (Greiner #655090) at a cell density of 5000 cells in 100 μl culture medium per well. On reaching ~60% confluence, media was aspirated and replaced with fresh media containing the relevant pyropheophorbide a analogue from 0-100 μM in DMSO. Cells were incubated for a further 24 hours, allowing uptake of pyropheophorbide a analogues.
(§6) To test for inherent cytotoxicity (i.e. “dark toxicity”) of the pyropheophorbide a analogues, the culture media was replaced after 24 hours with fresh media containing 10% (v/v) AlamarBlue Cell Viability Reagent (ThermoFisher) and cells incubated at 37° C. for 6 hours. Untreated cells were used as a control. Fluorescence (Ex 555 nm/Em 596 nm) was measured using a Cytation 3 Cell Imaging Multi-Mode Reader (Biotek) or a CLARIOstar Plus Microplate Readear (BMG Labtech), and cytotoxicity assessed according to the % viable cells remaining. All measurements were made in quadruplicate.
(§7) The phototoxicity and inherent cytotoxicity (i.e. “dark toxicity”) of pyropheophorbide a analogues were assessed as previously using SKOV3 ovarian cancer cells. For comparative purposes, pyropheophorbide a analogues were compared against chlorin e4 disodium and Talaporfin sodium, a clinically approved photosensitizer used in the photodynamic treatment of lung cancers. Phototoxicity IC90 values and dark toxicity IC10 values were calculated using a log[inhibitor]-vs normalized response dose curve with variable slope, using the formula Y=100/(1+(IC90/X)^HillSlope (phototoxicity IC90)) or Y=100/(1+(IC10/X)^HillSlope (dark toxicity IC10)).

[3] = system: SKOV3 ovarian cancer cells; test: Inherent cytotoxicity (dark toxicity) in SKOV3 cells without light (AlamarBlue viability); conditions: 24 h incubation, no light activation
Protocol: as §1, §2, §3, §4, §5, §6, §7

[4] = Homo sapiens, SK-OV-3, light or radiation study

| SMILES | IC90 [1] [µM] | Dark toxicity μM (IC10) [2] [µM] | IC90 [1, 4] [µM] | Dark toxicity μM (IC10) ([2]; human, 24 h) [µM] | Dark toxicity μM (IC10) [3] [µM] |
| --- | --- | --- | --- | --- | --- |
| C=Cc1c(C)c2cc3nc(c(C)c4[nH]c(cc5nc(cc1[nH]2)C(C)=C5CC)c(C)c4C(=O)O)[C@@H](CCC(=O)O)[C@@H]3C [Chlorin e4 disodium, chlorin e4 disodium, reference compound] | 21.3 | 40.23 |  |  |  |
| CCC1=C(C)c2cc3[nH]c(cc4nc(c5c6[nH]c(cc1n2)c(C)c6C(=O)C5)[C@@H](CCC(=O)OC)[C@@H]4C)c(C)c3CO [Comparative Compound 1, pyropheophorbide a 9-hydroxymethyl methyl ester, reference compound] |  |  | 0.458 | 15.500 |  |
| CCC1=C(C)c2cc3[nH]c(cc4nc(c5c6[nH]c(cc1n2)c(C)c6C(=O)C5)[C@@H](CCC(=O)OC)[C@@H]4C)c(C)c3COC(=O)NCCC[P+](c1ccccc1)(c1ccccc1)c1ccccc1 [Compound 1, pyropheophorbide a methyl ester 9-(N-(3-triphenylphosphoniumpropyl)bromide)carbamate] |  |  | 0.038 |  | 3.088 |
| CCC1=C(C)c2cc3[nH]c(cc4nc(c5c6[nH]c(cc1n2)c(C)c6C(=O)C5)[C@@H](CCC(=O)OC)[C@@H]4C)c(C)c3COC(=O)CCCC[P+](c1ccccc1)(c1ccccc1)c1ccccc1 [Compound 2, pyropheophorbide a methyl ester 9-(oxopentyl)triphenylphosphonium bromide] |  |  | 0.002 | 0.415 |  |
| CCC1=C(C)c2cc3[nH]c(cc4nc(c5c6[nH]c(cc1n2)c(C)c6C(=O)C5)[C@@H](CCC(=O)OC)[C@@H]4C)c(C)c3CN(C)C(=O)CCCC[P+](c1ccccc1)(c1ccccc1)c1ccccc1 [Compound 3, pyropheophorbide a 9-N-(methyl-5-triphenylphosphonium bromidepentanamide) methyl ester] |  |  | 0.012 | 24.00 |  |
| CCC1=C(C)c2cc3[nH]c(cc4nc(c5c6[nH]c(cc1n2)c(C)c6C(=O)C5)[C@@H](CCC(=O)OC)[C@@H]4C)c(C)c3CNCCC[P+](c1ccccc1)(c1ccccc1)c1ccccc1 [Compound 4, pyropheophorbide a 9-(N-3-triphenylphosphoniumpropyl bromide)aminomethyl methyl ester] |  |  | 0.048 |  | 50.90 |
| CCOC(=O)N(CCC[P+](c1ccccc1)(c1ccccc1)c1ccccc1)Cc1c(C)c2cc3nc(c4c5[nH]c(cc6nc(cc1[nH]2)C(C)=C6CC)c(C)c5C(=O)C4)[C@@H](CCC(=O)OC)[C@@H]3C [Compound 5, pyropheophorbide a 9-(N-3-triphenylphosphoniumpropyl bromide ethylcarbamate)aminomethyl methyl ester] |  |  | 0.006 |  | 48.97 |
| C=Cc1c(C)c2cc3nc(c(CC(=O)N[C@@H](CC(=O)O)C(=O)O)c4[nH]c(cc5nc(cc1[nH]2)C(C)=C5CC)c(C)c4C(=O)O)[C@@H](CCC(=O)O)[C@@H]3C [Talaporfin sodium] |  |  |  | 11.10 |  |

From patent US20260248828A1, “Pyropheophorbide Analogues for Therapy and Diagnosis” (RMW Cho Group Limited, priority 2023, published 2026)
